Values joined by “and” are separate entries in the source; they are usually repeats but may differ in a detail not shown here. Identical values can stand only once. Inconclusive results and toxic doses are left out. Numbered stars: 1 amine (or outer) side, 2 acyl side, 3 side chain; on linkers, the order of the positions; unused ones are H or OH. Bridge positions count the residues as written; N and C are the ends. Square brackets hold non-standard residues; d marks the D form. Peptide text beside a SMILES is read from it. * marks the point of attachment. ξ: configuration not given here. ξOrn(4,5-diOH) = O=C(C(CC(O)C(O)N[*:3])N[*:1])[*:2]; ξhTyr(βξ-OH,γξ-OH) = NC(C(=O)O)C(O)C(O)c1ccc(O)cc1; ξPro(3ξ-OH,4ξ-Me) = CC1CNC(C(=O)O)C1O; X22 = CCCCC/C=C/C/C=C\CCCCCCCC(=O)*; Hyp = O=C(O)[CH]1C[CH](O)CN1

The experiment relates to P388 leukemia ip, CD2F1 mice, survival T/C. In words: NCI In Vivo Anticancer Drug Screen. Data for tumor model P388 Leukemia (intraperitoneal) in CD2F1 (CDF1) mice. As to conditions: endpoint: median survival time, higher = longer survival. The method in brief:
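Mice carrying the transplanted tumor received test compound or vehicle. Survival was recorded in each group, and the value is the treated-group measurement divided by that of the vehicle-treated control group.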

Setting [1] is: dose: 50.0 mg/kg/injection, schedule: Q01DX005 (ip), vehicle: saline with Tween-80.
Setting [2] is: dose: 100.0 mg/kg/injection, schedule: Q01DX005 (ip), vehicle: saline with Tween-80.
[3] abbreviates: dose: 200.0 mg/kg/injection, schedule: Q01DX005 (ip), vehicle: saline with Tween-80.
Where [4] appears, read: dose: 100.0 mg/kg/injection, schedule: Q01DX009 (ip), vehicle: saline with Tween-80.
Setting [5] is: dose: 200.0 mg/kg/injection, schedule: Q01DX009 (ip), vehicle: saline with Tween-80.
Setting [6] is: dose: 50.0 mg/kg/injection, schedule: Q01DX005 (ip), vehicle: Klucel (hydroxypropylcellulose) (HPC).
The mark [7] stands for this setting: dose: 100.0 mg/kg/injection, schedule: Q01DX005 (ip), vehicle: Klucel (hydroxypropylcellulose) (HPC).
Where [8] appears, read: dose: 200.0 mg/kg/injection, schedule: Q01DX005 (ip), vehicle: Klucel (hydroxypropylcellulose) (HPC).
Setting [9] is: dose: 60.0 mg/kg/injection, schedule: Q01DX005 (ip), vehicle: saline with Tween-80.
[10] abbreviates: dose: 120.0 mg/kg/injection, schedule: Q01DX005 (ip), vehicle: saline with Tween-80.
[11] abbreviates: dose: 240.0 mg/kg/injection, schedule: Q01DX005 (ip), vehicle: saline with Tween-80.
The mark [12] stands for this setting: dose: 50.0 mg/kg/injection, schedule: Q01DX009 (ip), vehicle: saline.
Setting [13] is: dose: 100.0 mg/kg/injection, schedule: Q01DX009 (ip), vehicle: saline.
Setting [14] is: dose: 200.0 mg/kg/injection, schedule: Q01DX009 (ip), vehicle: saline.

On to `NC(=O)NN(Cc1cccc(Cl)c1)N=O`, for which the T/C is, setting by setting: (dose: 100.0 mg/kg/injection, schedule: Q04DX003 (ip), vehicle: Klucel (hydroxypropylcellulose) (HPC)) 95 % of control; (dose: 200.0 mg/kg/injection, schedule: Q04DX003 (ip), vehicle: Klucel (hydroxypropylcellulose) (HPC)) 94 % of control; (dose: 400.0 mg/kg/injection, schedule: Q04DX003 (ip), vehicle: Klucel (hydroxypropylcellulose) (HPC)) 98 % of control.
For `O=c1[nH]n(CCc2ccccn2)c(=O)c(Cl)c1Cl`, the T/C by setting is: under setting [1], 96 % of control; under setting [2], 100 % of control; under setting [3], 92 % of control.
`CC1=C(c2cc3ccccc3c3ccccc23)CCCC1`: the T/C by setting is: under setting [4], 104 % of control; under setting [5], 98 % of control; (dose: 400.0 mg/kg/injection, schedule: Q01DX009 (ip), vehicle: saline with Tween-80) 100 % of control.
Turning to `Cc1cccc(C)c1OCc1n[nH]c(=S)n1-c1ccccc1`, the T/C under setting [6] was 89 % of control, the T/C under setting [7] was 90 % of control and the T/C under setting [8] is 90 % of control.
Turning to `COc1cc2c(c(OC)c1OC)-c1ccc(SC)c(=O)cc1[C@@H](NC(=O)CO)CC2`, the T/C (dose: 0.1 mg/kg/injection, schedule: Q01DX009 (ip), vehicle: other) is 150 % of control; the T/C (dose: 0.2 mg/kg/injection, schedule: Q01DX009 (ip), vehicle: other) was 157 % of control and 172 % of control.
For the molecule `NC(=O)CCN1CCCN(CCC(N)=O)CCN(CCC(N)=O)CCCN(CCC(N)=O)CC1`, the T/C is 102 % of control under setting [9], 110 % of control under setting [10] and 94 % of control under setting [11].
As to `C/C(=N\OC(=O)c1c(-c2c(Cl)cccc2Cl)noc1C)c1ccccc1O`, the T/C is, setting by setting: under setting [12], 91 % of control; under setting [13], 94 % of control; under setting [14], 93 % of control.
Turning to `O=c1c2ccccc2nc2n1OCC2`, the T/C was 103 % of control under setting [12], 111 % of control under setting [13] and 111 % of control under setting [14].
In the case of `C=CCC(NC(=O)CC)C(=O)O` (stereo not drawn), the T/C was 92 % of control under setting [12], 92 % of control under setting [13] and 103 % of control under setting [14].
Consider `NC(N)=NS(=O)(=O)c1ccc(NCc2c3ccccc3nc3cc(Cl)ccc23)cc1`, for which the T/C runs as follows: under setting [9], 170 % of control; under setting [10], 121 % of control; under setting [11], 116 % of control.
For the molecule `CNC(=O)Nc1nncs1`, the T/C under setting [9] was 106 % of control, the T/C under setting [10] is 104 % of control and the T/C under setting [11] is 106 % of control.
Take `COc1c(/C=C/C=O)cc2c(c1OC)OCO2`: the T/C by setting is: (dose: 25.0 mg/kg/injection, schedule: Q01DX005 (ip), vehicle: Klucel (hydroxypropylcellulose) (HPC)) 97 % of control; under setting [6], 97 % of control; under setting [7], 104 % of control; under setting [8], 100 % of control.
For `CCCCCCC[CH2][Sn]([F])([F])[CH2]CCCCCCC`, the T/C reads like this: (dose: 12.5 mg/kg/injection, schedule: Q04DX003 (ip), vehicle: saline) 102 % of control; (dose: 25.0 mg/kg/injection, schedule: Q04DX003 (ip), vehicle: saline) 106 % of control and 108 % of control; (dose: 50.0 mg/kg/injection, schedule: Q04DX003 (ip), vehicle: saline) 106 % of control and 116 % of control; (dose: 100.0 mg/kg/injection, schedule: Q04DX003 (ip), vehicle: saline) 101 % of control and 109 % of control and 121 % of control.
Consider `CC(=O)/C=C/c1ccc(Cl)c(Cl)c1`, for which the T/C by setting is: (dose: 50.0 mg/kg/injection, schedule: Q01DX009 (ip), vehicle: saline with Tween-80) 118 % of control; under setting [4], 111 % of control; under setting [5], 111 % of control.
`[Cl][Pt+2][Cl].[NH-]c1ccc(S(=O)(=O)O)cc1[NH-]`: the T/C is, setting by setting: (dose: 6.25 mg/kg/injection, schedule: Q04DX002 (ip), vehicle: saline with Tween-80) 102 % of control; (dose: 12.5 mg/kg/injection, schedule: Q04DX002 (ip), vehicle: saline with Tween-80) 111 % of control; (dose: 25.0 mg/kg/injection, schedule: Q04DX002 (ip), vehicle: saline with Tween-80) 119 % of control; (dose: 50.0 mg/kg/injection, schedule: Q04DX002 (ip), vehicle: saline with Tween-80) 124 % of control.
In the case of `COc1oc(C2C/C(=C/C(C)=C/C(C)=C/C(C)=C/c3ccc([N+](=O)[O-])cc3)CO2)c(C)c(=O)c1C` (stereo not drawn), the T/C is 116 % of control (dose: 0.25 mg/kg/injection, schedule: Q01DX005 (ip), vehicle: saline); 107 % of control (dose: 0.5 mg/kg/injection, schedule: Q01DX005 (ip), vehicle: saline); 113 % of control (dose: 1.0 mg/kg/injection, schedule: Q01DX005 (ip), vehicle: saline); 121 % of control (dose: 2.0 mg/kg/injection, schedule: Q01DX005 (ip), vehicle: saline).
As to `C=C1C(=O)C(CCCC)=C(CCC)C1O` (stereo not drawn), the T/C was 100 % of control under setting [9] and 107 % of control under setting [10].
In the case of `CCCCC/C=C/C/C=C\CCCCCCCC(=O)NC1CC(O)C(O)NC(=O)C2C(O)C(C)CN2C(=O)C(C(C)O)NC(=O)C(C(O)C(O)c2ccc(O)cc2)NC(=O)C2CC(O)CN2C(=O)C(C(C)O)NC1=O` (stereo not drawn) (X22-[ξOrn(4,5-diOH)]T[Hyp][ξhTyr(βξ-OH,γξ-OH)]T[ξPro(3ξ-OH,4ξ-Me)]; lactam 1-C; configuration not given here), the T/C (dose: 0.25 mg/kg/injection, schedule: Q01DX009 (ip), vehicle: lactate) was 100 % of control and the T/C (dose: 0.5 mg/kg/injection, schedule: Q01DX009 (ip), vehicle: lactate) was 104 % of control.
With `CC(C)CC1COC(=O)C(CC(C)C)NC(=O)COCC(=O)NC(CC(C)C)C(=O)OCC(CC(C)C)NC(=O)COCC(=O)N1` (stereo not drawn), the T/C reads like this: (dose: 60.0 mg/kg/injection, schedule: Q01DX005 (ip), vehicle: Klucel (hydroxypropylcellulose) (HPC)) 99 % of control; (dose: 120.0 mg/kg/injection, schedule: Q01DX005 (ip), vehicle: Klucel (hydroxypropylcellulose) (HPC)) 100 % of control; (dose: 240.0 mg/kg/injection, schedule: Q01DX005 (ip), vehicle: Klucel (hydroxypropylcellulose) (HPC)) 101 % of control.
With `CN(C)c1cc(O)c(-n2c3cc(=O)c(N(C)C)cc-3nc3ccccc32)cc1O`, the T/C by setting is: (dose: 3.12 mg/kg/injection, schedule: Q01DX009 (ip), vehicle: saline) 100 % of control; (dose: 6.25 mg/kg/injection, schedule: Q01DX009 (ip), vehicle: saline with Tween-80) 93 % of control; (dose: 6.25 mg/kg/injection, schedule: Q01DX009 (ip), vehicle: saline) 96 % of control; (dose: 12.5 mg/kg/injection, schedule: Q01DX009 (ip), vehicle: saline with Tween-80) 90 % of control; (dose: 12.5 mg/kg/injection, schedule: Q01DX009 (ip), vehicle: saline) 100 % of control; (dose: 25.0 mg/kg/injection, schedule: Q01DX009 (ip), vehicle: saline with Tween-80) 91 % of control. Further, the T/C is, setting by setting: (dose: 25.0 mg/kg/injection, schedule: Q01DX009 (ip), vehicle: saline) 115 % of control; under setting [12], 120 % of control; under setting [13], 90 % of control.
Regarding `N#CC1Sc2ccccc2N1C(=O)c1ccccc1` (stereo not drawn), the T/C under setting [1] is 103 % of control, the T/C under setting [2] was 100 % of control and the T/C under setting [3] was 98 % of control.
`O=C(CC[N+](=O)[O-])OCC1OC(O)C(OC(=O)CC[N+](=O)[O-])C(O)C1O` (stereo not drawn): the T/C by setting is: (dose: 12.5 mg/kg/injection, schedule: Q01DX005 (ip), vehicle: distilled water + Tween-80) 100 % of control; (dose: 18.75 mg/kg/injection, schedule: Q01DX001 (ip), vehicle: saline + alcohol) 100 % of control; (dose: 25.0 mg/kg/injection, schedule: Q01DX005 (ip), vehicle: distilled water + Tween-80) 97 % of control; (dose: 37.5 mg/kg/injection, schedule: Q01DX001 (ip), vehicle: saline + alcohol) 101 % of control; (dose: 50.0 mg/kg/injection, schedule: Q01DX005 (ip), vehicle: distilled water + Tween-80) 100 % of control; (dose: 75.0 mg/kg/injection, schedule: Q01DX001 (ip), vehicle: saline + alcohol) 109 % of control. The T/C runs as follows: (dose: 100.0 mg/kg/injection, schedule: Q01DX005 (ip), vehicle: distilled water + Tween-80) 98 % of control; (dose: 200.0 mg/kg/injection, schedule: Q01DX005 (ip), vehicle: distilled water + Tween-80) 100 % of control.

Values taken from PubChem BioAssay AID330 (DTP/NCI, 2004).
